In this test the target is T1, IRAK4 (Homo sapiens, UniProt Q9NWZ3).
T1 construct: purchased CARNA Bioscience 09-145
T1 sequence (Q9NWZ3 1-460): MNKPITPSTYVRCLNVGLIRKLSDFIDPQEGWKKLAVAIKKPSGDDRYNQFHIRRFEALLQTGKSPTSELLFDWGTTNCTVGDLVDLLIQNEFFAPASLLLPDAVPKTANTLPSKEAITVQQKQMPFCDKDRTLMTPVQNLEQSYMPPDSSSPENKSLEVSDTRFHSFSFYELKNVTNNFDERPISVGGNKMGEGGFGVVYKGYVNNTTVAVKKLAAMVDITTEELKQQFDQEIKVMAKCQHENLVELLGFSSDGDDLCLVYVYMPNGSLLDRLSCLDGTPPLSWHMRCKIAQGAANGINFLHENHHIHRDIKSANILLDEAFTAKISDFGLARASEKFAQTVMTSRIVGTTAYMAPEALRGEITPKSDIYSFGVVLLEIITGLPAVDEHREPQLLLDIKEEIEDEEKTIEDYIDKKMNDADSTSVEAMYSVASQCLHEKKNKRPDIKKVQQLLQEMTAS
In words: IRAK-4 activity inhibition assay (Caliper, Peptide 8, 37 μM ATP). Type of test: biochemical. The conditions noted are these: 3.5 nM IRAK4, 1.5 μM Peptide 8, 37 μM ATP, 28° C. 40 minutes; read-out: IRAK-4 activity inhibition IC50.

For orientation: IC50 means the concentration that gives 50% inhibition.

With `OC1CCCC(Nc2ncnc3sc4c(c23)CCCC4)C1` (centres unmarked) [Compound I-5, 3-((5,6,7,8-tetrahydrobenzo[4,5]thieno[2,3-d]pyrimidin-4-yl)amino)cyclohexanol], the IC50 is less than 5 µM.

Consider `CC1CCc2c(sc3ncnc(N4CCN(S(=O)(=O)c5ccc(C(C)(C)C)cc5)CC4)c23)C1` (centres unmarked) [Compound I-23], for which the 50% inhibitory concentration (IC50) is 20 to 50 µM.

`c1nc(N[C@H]2CC[C@@H](N3CCOCC3)CC2)c2c3c(sc2n1)CCC3` [Compound I-160, N-((1s,4s)-4-morpholinocyclohexyl)-6,7-dihydro-5H-cyclopenta[4,5]thieno[2,3-d]pyrimidin-4-amine]: the IC50 was in the range of 5 to 20 µM.

On to `CC(C)NC(=O)CN(C)[C@H]1CC[C@H](Nc2ncnc3sc4c(c23)CCC4)CC1` [Compound I-125, 2-(((1r,4r)-4-((6,7-dihydro-5H-cyclopenta[4,5]thieno[2,3-d]pyrimidin-4-yl)amino)cyclohexyl)(methyl)amino)-N-isopropylacetamide], for which the IC50 is less than 5 µM.

Regarding `CN(CC(=O)NCc1ccccc1)[C@H]1CC[C@H](Nc2ncnc3sc4c(c23)CCC4)CC1` [Compound I-123, N-benzyl-2-(((1r,4r)-4-((6,7-dihydro-5H-cyclopenta[4,5]thieno[2,3-d]pyrimidin-4-yl)amino)cyclohexyl)(methyl)amino)acetamide], the IC50 is less than 5 µM.

Regarding `CN(Cc1cccc(C(N)=O)c1)[C@H]1CC[C@H](Nc2ncnc3sc4c(c23)CCC4)CC1` [Compound I-166, 3-((((1r,4r)-4-((6,7-dihydro-5H-cyclopenta[4,5]thieno[2,3-d]pyrimidin-4-yl)amino)cyclohexyl)(methyl)amino)methyl)benzamide], the IC50 is less than 5 µM.

For the compound `O=C(CN(CC(=O)N1CCCC1)[C@H]1CC[C@H](Nc2ncnc3sc4c(c23)CCC4)CC1)N1CCCC1` [Compound I-136, trans-2-[[2-oxo-2-(pyrrolidin-1-yl)ethyl][4-([7-thia-9,11-diazatricyclo[6.4.0.0[2,6]]dodeca-1(8),2(6),9,11-tetraen-12-yl]amino)cyclohexyl]amino]-1-(pyrrolidin-1-yl)ethan-1-one], the IC50 was in the range of 5 to 20 µM.

As to `c1nc(N[C@H]2CC[C@H](N3CCC3)CC2)c2c3c(sc2n1)CCC3` [Compound I-158, N-[4-(azetidin-1-yl)cyclohexyl]-7-thia-9,11-diazatricyclo[6.4.0.0^[2,6]]dodeca-1(8),2(6),9,11-tetraen-12-amine], the IC50 was less than 5 µM.

Take `c1nc(NCCN2CCNCC2)c2c3c(sc2n1)CCC3` [Compound I-147, N-(2-(piperazin-1-yl)ethyl)-6,7-dihydro-5H-cyclopenta[4,5]thieno[2,3-d]pyrimidin-4-amine]: the IC50 was greater than 50 µM.

Turning to `CN(CC(=O)N1CCCCC1)[C@H]1CC[C@H](Nc2ncnc3sc4c(c23)CCC4)CC1` [Compound I-129, 2-[methyl[4-([7-thia-9,11-diazatricyclo[6.4.0.0[2,6]]dodeca-1(12),2(6),8,10-tetraen-12-yl]amino)cyclohexyl]amino]-1-(piperidin-1-yl)ethan-1-one], the IC50 is less than 5 µM.

As for `CC1CCc2sc3ncnc(NC4CCCC(O)C4)c3c2C1` (mixture of isomers) [Compound I-35, 3-((6-methyl-5,6,7,8-tetrahydrobenzo[4,5]thieno[2,3-d]pyrimidin-4-yl)amino)cyclohexanol], the IC50 is 5 to 20 µM.

`CN(Cc1c(F)cccc1Cl)[C@H]1CC[C@H](Nc2ncnc3sc4c(c23)CCC4)CC1` [Compound I-99, 1-N-[(2-chloro-6-fluorophenyl)methyl]-1-N-methyl-4-N-[7-thia-9,11-diazatricyclo[6.4.0.0^[2,6]]dodeca-1(8),2(6),9,11-tetraen-12-yl]cyclohexane-1,4-diamine]: the IC50 was less than 5 µM.

Turning to `CCC1CCc2c(sc3ncnc(NC4CCN(Cc5ccccc5)CC4)c23)C1` (centres unmarked) [Compound I-20], the IC50 lay within 20 to 50 µM.

On to `CN(Cc1ccccc1)[C@H]1CC[C@H](Nc2ncnc3sc4c(c23)CCC4)CC1` [Compound I-151, (1r,4r)-N1-benzyl-N4-(6,7-dihydro-5H-cyclopenta[4,5]thieno[2,3-d]pyrimidin-4-yl)-N1-methylcyclohexane-1,4-diamine], for which the IC50 is less than 5 µM.

For the compound `O=C(CN[C@H]1CC[C@H](Nc2ncnc3sc4c(c23)CCC4)CC1)N1CCCC1` [Compound I-134, trans-1-(pyrrolidin-1-yl)-2-[[4-([7-thia-9,11-diazatricyclo[6.4.0.0[2,6]]dodeca-1(8),2(6),9,11-tetraen-12-yl]amino)cyclohexyl]amino]ethan-1-one], the IC50 is less than 5 µM.

Turning to `Cc1sc2ncnc(N[C@H]3CC[C@H](O)CC3)c2c1C` [Compound I-19, trans-4-((5,6-dimethylthieno[2,3-d]pyrimidin-4-yl)amino)cyclohexanol], the IC50 lay in the range of 5 to 20 µM.

With `CN(C1CCOCC1)[C@H]1CC[C@H](Nc2ncnc3sc4c(c23)CCC4)CC1` [Compound I-132, 1-N-methyl-1-N-(oxan-4-yl)-4-N-[7-thia-9,11-diazatricyclo[6.4.0.0[2,6]]dodeca-1(8),2(6),9,11-tetraen-12-yl]cyclohexane-1,4-diamine], the IC50 was less than 5 µM.

As to `CN(CCCc1ccccc1)[C@H]1CC[C@H](Nc2ncnc3sc4c(c23)CCC4)CC1` [Compound I-118], the IC50 is less than 5 µM.

As for `CN[C@H]1CC[C@H](N(C)c2ncnc3sc4c(c23)CCC4)CC1` [Compound I-146, (1r,4r)-N1-(6,7-dihydro-5H-cyclopenta[4,5]thieno[2,3-d]pyrimidin-4-yl)-N1,N4-dimethylcyclohexane-1,4-diamine], the IC50 was less than 5 µM.

Regarding `CC(C)N[C@H]1CC[C@@H](Nc2ncnc3sc4c(c23)CCC4)CC1` [Compound I-161], the IC50 was greater than 50 µM.

`CN(Cc1ccco1)[C@H]1CC[C@H](Nc2ncnc3sc4c(c23)CCC4)CC1` [Compound I-101, 1-N-(furan-2-ylmethyl)-1-N-methyl-4-N-[7-thia-9,11-diazatricyclo[6.4.0.0^[2,6]]dodeca-1(8),2(6),9,11-tetraen-12-yl]cyclohexane-1,4-diamine]: the IC50 was less than 5 µM.

For the compound `C[C@@H]1CCc2sc3ncnc(N[C@H]4CC[C@H](N(C)C)CC4)c3c2C1` [Compound I-56, trans-N^1,N^1-dimethyl-N^4-((R)-6-methyl-5,6,7,8-tetrahydrobenzo[4,5]thieno[2,3-d]pyrimidin-4-yl)cyclohexane-1,4-diamine], the IC50 was less than 5 µM.

Consider `c1nc(N[C@H]2CC[C@@H](N3CCC3)CC2)c2c3c(sc2n1)CCC3` [Compound I-159, N-((1s,4s)-4-(azetidin-1-yl)cyclohexyl)-6,7-dihydro-5H-cyclopenta[4,5]thieno[2,3-d]pyrimidin-4-amine], for which the IC50 fell in the range of 20 to 50 µM.

For `COCCN(C)[C@H]1CC[C@H](Nc2ncnc3sc4c(c23)CCC4)CC1` [Compound I-169, 1-N-(2-methoxyethyl)-1-N-methyl-4-N-[7-thia-9,11-diazatricyclo[6.4.0.0^[2,6]]dodeca-1(8),2(6),9,11-tetraen-12-yl]cyclohexane-1,4-diamine], the IC50 is less than 5 µM.

Turning to `Cc1sc2ncnc(N3CCC(C(N)=O)CC3)c2c1C` [Compound I-18], the IC50 was 20 to 50 µM.

For the compound `CN[C@H]1CC[C@H](Nc2ncnc3sc4c(c23)CC(C)CC4)CC1` (stereo partly drawn) [Compound I-52, trans-N^1-methyl-N4-(6-methyl-5,6,7,8-tetrahydrobenzo[4,5]thieno[2,3-d]pyrimidin-4-yl)cyclohexane-1,4-diamine], the IC50 was less than 5 µM.

Consider `CN(CC(=O)N1CCOCC1)[C@H]1CC[C@H](Nc2ncnc3sc4c(c23)CCC4)CC1` [Compound I-130, 2-[methyl[4-([7-thia-9,11-diazatricyclo[6.4.0.0[2,6]]dodeca-1(12),2(6),8,10-tetraen-12-yl]amino)cyclohexyl]amino]-1-(morpholin-4-yl)ethan-1-one], for which the IC50 is less than 5 µM.

Turning to `CC1CCc2sc3ncnc(N4CCC(C(N)=O)CC4)c3c2C1` (centres unmarked) [Compound I-36], the IC50 lay in the range of 5 to 20 µM.

Consider `CCC1CCc2c(sc3ncnc(N4CCN(C)CC4)c23)C1` (centres unmarked) [Compound I-16], for which the 50% inhibitory concentration (IC50) lay in the range of 5 to 20 µM.

In the case of `CN1CCC(COc2ncnc3sc4c(c23)CCC4)CC1` [Compound I-64], the IC50 was in the range of 20 to 50 µM.

As for `CN(C)[C@H]1CC[C@H](Nc2ncnc3sc4c(c23)CC(C)(C)CC4)CC1` [Compound I-40, trans-N^1-(6,6-dimethyl-5,6,7,8-tetrahydrobenzo[4,5]thieno[2,3-d]pyrimidin-4-yl)-N^4,N^4-dimethylcyclohexane-1,4-diamine], the IC50 was less than 5 µM.

Consider `Cc1sc2ncnc(N3CCC(C(=O)NCCc4nnc5ccccn45)CC3)c2c1C` [Compound I-29], for which the IC50 lay within 5 to 20 µM.

Take `N[C@H]1CC[C@H](Nc2ncnc3sc4c(c23)CCC4)CC1` [Compound I-10, trans-N^1-(6,7-dihydro-5H-cyclopenta[4,5]thieno[2,3-d]pyrimidin-4-yl)cyclohexane-1,4-diamine]: the IC50 was less than 5 µM.

Consider `O[C@H]1CC[C@H](Nc2ncnc3sc4c(c23)CCCC4)CC1` [Compound I-4, trans-4-((5,6,7,8-tetrahydrobenzo[4,5]thieno[2,3-d]pyrimidin-4-yl)amino)cyclohexanol], for which the IC50 was in the range of 5 to 20 µM.

Turning to `CN(CCC(=O)O)[C@H]1CC[C@H](Nc2ncnc3sc4c(c23)CCC4)CC1` [Compound I-108, 3-[methyl[4-([7-thia-9,11-diazatricyclo[6.4.0.0^[2,6]]dodeca-1(8),2(6),9,11-tetraen-12-yl]amino)cyclohexyl]amino]propanoic acid], the IC50 was less than 5 µM.

(Values after patent US9340554B2, “IRAK inhibitors and uses thereof” (Nimbus Iris, Inc., priority 2011, dated 2016).)
